Source: patent publication US11377473B2, “Albumin-binding prodrugs of auristatin E derivatives” (priority 2017, dated 2022)

System: panel of 6 selected human cancer cell lines (LXFL 1674L, SW-620, CAL-27, RKO, MDA-MB-468, SK-OV-3)
Assay: IC50 determination in a panel of tumor cell lines (CellTiter-Blue Cell Viability assay)
Type: cell-based
Details: geometric mean over six cell lines, 96 h treatment; read-out: Geometric mean IC50
Procedure: Samples were provided to Charles River Discovery Research Services Germany GmbH as frozen stock solutions in pharmaceutical grade DMSO (Sigma-Aldrich, Taufkirchen, Germany). On each day of the experiment, a frozen aliquot of stock solution was thawed. Subsequent serial dilutions were realized with complete RPMI 1640 cell culture medium using an intermediate dilution plate. 10 μL taken from the intermediate dilution plate were then transferred to 140 μL/well of the cell culture plate. Cells were treated with the test compounds at 10 concentrations in triplicate in half-log steps from 0.003 nM to 100 nM for a period of 96 h.
The compounds were tested in a panel of 6 selected human cancer cell lines by using CellTiter-Blue® Cell Viability assay (Promega, Mannheim, Germany). IC values are reported as absolute IC50 values, obtained for a test compound as the geometric mean of IC50 values over all cell lines tested.
The cell lines used were LXFL 1674L (established from patient-derived xenograft at Charles River Discovery Research Services Germany GmbH), SW-620 (kindly provided by the NCI, Bethesda, Md., USA), CAL-27 (purchased from DSMZ, Deutsche Sammlung von Mikroorganismen und Zellkulturen, Braunschweig, Germany), RKO, MDA-MB-468, and SK-OV-3 (from ATCC, American Type Culture Collection, Rockville, Md., USA). Authenticity of all cell lines was proven at the DSMZ by STR (short tandem repeat) analysis, a PCR based DNA-fingerprinting methodology. Cell lines were routinely passaged once or twice weekly and maintained in culture for up to 20 passages. Cells were grown at 37° C. in a humidified atmosphere with 5% CO2 in RPMI 1640 medium (25 mM HEPES, with L-glutamine, Biochrom, Berlin, Germany) supplemented with 10% (v/v) fetal calf serum (Sigma-Aldrich, Taufkirchen, Germany) and 0.1 mg/mL gentamicin (Life Technologies, Karlsruhe, Germany). The CellTiter-Blue® Cell Viability Assay was used according to manufacturer's instructions. Briefly, cells were harvested from exponential phase cultures, counted and plated in 96-well flat-bottom microtiter plates at a cell density of 4,000-10,000 cells/well depending on the cell line's growth rate. After a 24 h recovery period to allow the cells to resume exponential growth, 10 μL of culture medium (six control wells/plate) or of culture medium with test compound were added. The compounds were applied at 10 concentrations in triplicate in half-log increments up to 100 nM and cells were treated continuously for 96 h. […] Following an incubation period of up to 4 h, fluorescence (FU) was measured by using the Enspire Multimode Plate Reader (excitation λ=531 nm, emission λ=615 nm). IC50 values were determined with GraphPad Prism bioanalytic software (San Diego, Calif., USA).

Structure (SMILES): CC[C@H](C)[C@@H]([C@@H](CC(=O)N1CCC[C@H]1[C@H](OC)[C@@H](C)C(=O)N[C@H](C)[C@@H](O)c1ccccc1)OC)N(C)C(=O)[C@@H](NC(=O)[C@H](C(C)C)N(C)C)C(C)C [auristatin E]
- IC50: 130 pM
